This note sets out measurements from patent US11655216B2 (priority 2016, dated 2023).

Where two headings read alike, the source gives them in different places.

Assay [1] addresses T1, glutathione-S-transferase (GST) tagged LXRalpha LBD (ligand binding domain) (Homo sapiens, UniProt Q13133).
T1 construct: purchased Invitrogen pv4655
T1 sequence (Q13133 209-447 limits assumed): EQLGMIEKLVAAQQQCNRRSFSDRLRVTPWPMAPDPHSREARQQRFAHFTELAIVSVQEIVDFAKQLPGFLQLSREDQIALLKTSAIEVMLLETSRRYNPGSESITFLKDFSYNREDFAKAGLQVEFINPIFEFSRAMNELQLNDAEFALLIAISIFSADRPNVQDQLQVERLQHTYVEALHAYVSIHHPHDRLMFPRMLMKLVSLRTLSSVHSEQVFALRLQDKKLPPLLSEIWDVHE
The experiment in a line: biochemical. The method, boiled down: (§1)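 TR-FRET coactivator recruitment read-out: compounds first received either LBD, followed by a mix of terbium-labelled anti-GST antibody and fluorescein coactivator peptide. Signal measured by time-resolved FRET once plates had incubated at room temperature.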

Assay [2] addresses T2, glutathione-S-transferase (GST) tagged LXRbeta LBD (ligand binding domain) (Homo sapiens, UniProt P55055).
T2 construct: purchased Invitrogen pv4658
T2 sequence (P55055 222-460 limits assumed): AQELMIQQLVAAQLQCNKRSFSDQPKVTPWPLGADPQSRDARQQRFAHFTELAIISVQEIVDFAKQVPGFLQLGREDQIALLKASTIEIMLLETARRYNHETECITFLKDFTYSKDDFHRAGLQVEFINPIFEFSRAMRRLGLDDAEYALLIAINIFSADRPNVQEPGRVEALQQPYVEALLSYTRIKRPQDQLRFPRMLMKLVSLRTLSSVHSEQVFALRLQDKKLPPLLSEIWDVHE
The experiment in a line: LanthaScreen TR-FRET Liver X Receptor Coactivator Assay, LXR beta. The class given is biochemical. Particulars: for EC50: potency (Inflection Point), compound-induced co-activator recruitment, TR-FRET; for Emax: read-out: LXR beta actiivty at max dose, efficacy (% Emax) in relation to reference dual agonist T0901317. Summed up: as §1

The mark [3] stands for this setting: efficacy (% Emax) in relation to reference dual agonist T0901317, read-out: LXR alpha actiivty at max dose.
[4] abbreviates: potency (Inflection Point), compound-induced co-activator recruitment, TR-FRET, read-out: LXR alpha IP.
Where [5] appears, read: LXR alpha IP, potency (Inflection Point), compound-induced co-activator recruitment, TR-FRET.
Setting [6] is: read-out: LXR alpha actiivty at max dose, efficacy (% Emax) in relation to reference dual agonist T0901317.
The mark [7] stands for this setting: potency (Inflection Point), compound-induced co-activator recruitment, TR-FRET.
Setting [8] is: efficacy (% Emax) in relation to reference dual agonist T0901317.

Consider `CN(C)C(=O)c1ccc(OC(F)(F)CCCC2CCN(C(=O)C(O)(c3ccccc3)C(F)(F)F)CC2)cc1Cl` (single isomer, unassigned) [Example 19-1, (R or S)-2-chloro-4-(1,1-difluoro-4-(1-(3,3,3-trifluoro-2-hydroxy-2-phenylpropanoyl)piperidin-4-yl)butoxy)-N,N-dimethylbenzamide], for which the Emax is 23% in assay [1] (setting [3]) and 75% in assay [2]. Further, the EC50 in assay [1] (setting [4]) stood at 1170 nM; in assay [2] (LXR beta IP) it was 86 nM.

For the molecule `CN(C)C(=O)c1ccc(OC[C@H]2C[C@@H]2C2CCN(C(=O)C(C)(C)c3ccccc3)CC2)cc1Cl` (single isomer, unassigned) [Example 32-6, 2-chloro-N,N-dimethyl-4-(((1S,2R or 1R,2S)-2-(1-(2-methyl-2-phenylpropanoyl)piperidin-4-yl)cyclopropyl)methoxy) benzamide], the EC50 was 631 nM in assay [1] (setting [5]) and 42 nM in assay [2] (LXR beta IP). Further, the Emax in assay [1] (setting [6]) was determined as 33%; in assay [2], 75%.

As to `COc1cccc(C(O)(C(=O)N2CCC(CC(C)CC(C)Oc3ccc(C(=O)N(C)C)c(Cl)c3)CC2)C(F)(F)F)c1` (single isomer, unassigned) [Example 30-1, 2-chloro-N,N-dimethyl-4-(4-methyl-5-(1-((R or S)-3,3,3-trifluoro-2-hydroxy-2-(3-methoxyphenyl)propanoyl)piperidin-4-yl)pentan-2-yloxy)benzamide], the “LXR alpha IP” value in assay [1] was “No IP”. For the same molecule, the Emax in assay [1] (read-out: LXR alpha actiivty at max dose) turned out to be 8%; in assay [2] it was 84%. The EC50 in assay [2] (LXR beta IP) was 99 nM.

As for `CN(C)C(=O)c1ccc(O[C@H]2C[C@@H](CC3CCN(C(=O)[C@](O)(c4cccc(OC(F)F)c4)C(F)(F)F)CC3)C2)cc1Cl` (single isomer, unassigned) [Example 37-9, 2-chloro-4-((1R,3s)-3-((1-((R or S)-2-(3-(difluoromethoxy)phenyl)-3,3,3-trifluoro-2-hydroxypropanoyl)piperidin-4-yl)methyl)cyclobutoxy)-N,N-dimethylbenzamide], the EC50 was determined as 1020 nM in assay [1] (setting [5]) and 16 nM in assay [2] (LXR beta IP). Moreover, the Emax in assay [1] (setting [6]) came out at 25%; in assay [2] it was 111%.

Regarding `CN(C)C(=O)c1ccc(OCCCCC2CCN(C(=O)C(O)(c3ccccn3)C(F)(F)F)CC2)nc1Cl` (stereo not drawn) [Example 6-1, 2-chloro-N,N-dimethyl-6-(4-(1-(3,3,3-trifluoro-2-hydroxy-2-(pyridin-2-yl)propanoyl)piperidin-4-yl)butoxy)nicotinamide], the Emax in assay [1] (setting [3]) was found to be 28%; in assay [2], 73%. For the same molecule, the EC50 in assay [1] (setting [4]) turned out to be 1330 nM; in assay [2] (LXR beta IP), 29 nM.

For the molecule `CN(C)C(=O)c1ccc(OCCCCC2(C)CCN(C(=O)C3(c4ccccc4)CCCC3)CC2)cc1Cl` [Example 9-1, 2-chloro-N,N-dimethyl-4-(4-(4-methyl-1-(1-phenylcyclopentanecarbonyl)piperidin-4-yl)butoxy)benzamide], the EC50 in assay [1] (setting [5]) worked out at 411 nM; in assay [2] (LXR beta IP), 51 nM. For the same molecule, the Emax amounted to 13% in assay [1] (setting [6]) and 88% in assay [2].

Turning to `CN(C)C(=O)c1ccc(OCCC2CC3(CCN(C(=O)C(C)(C)c4ccccc4)CC3)C2)cc1Cl` [Example 34-2, 2-chloro-N,N-dimethyl-4-(2-(7-(2-methyl-2-phenylpropanoyl)-7-azaspiro[3.5]nonan-2-yl)ethoxy)benzamide], the values for the EC50 in assay [1] (setting [5]) and in assay [2] (LXR beta IP) were 268 nM and 26 nM, respectively. In addition, the figures for the Emax in assay [1] (setting [6]) and in assay [2] were 25% and 90%, respectively.

With `CN(C)C(=O)c1ccc(OC[C@@H]2C[C@H]2C2CCN(C(=O)C(C)(C)c3ccccc3)CC2)cc1Cl` (single isomer, unassigned) [Example 32-4, 2-chloro-N,N-dimethyl-4-(((1R,2S or 1S,2R)-2-(1-(2-methyl-2-phenylpropanoyl)piperidin-4-yl)cyclopropyl)methoxy) benzamide], the “LXR alpha IP” value in assay [1] (setting [7]) is “No IP”. For the same molecule, the figures for the Emax in assay [1] (setting [6]) and in assay [2] were 0% and 60%, respectively. Besides, the EC50 in assay [2] (LXR beta IP) came to 163 nM.

Take `COc1cccc(C(O)(C(=O)N2CCC3(CCC3CCCOc3ccc(C(=O)N(C)C)c(Cl)c3)CC2)C(F)(F)F)c1` (single isomer, unassigned) [Example 36-1, 2-chloro-N,N-dimethyl-4-(3-(7-((R or S)-3,3,3-trifluoro-2-hydroxy-2-(3-methoxyphenyl)propanoyl)-7-azaspiro[3.5]nonan-1-yl)propoxy)benzamide]: the figures for the Emax in assay [1] (setting [3]) and in assay [2] were 3% and 52%, respectively. In assay [1] (setting [7]), the “LXR alpha IP” value is listed as “No IP”. This molecule also came in with an EC50 in assay [2] (LXR beta IP) of 66 nM.

As for `CN(C)C(=O)c1ccc(OCCCCC2CCN(C(=O)C3(c4ccccc4)CCCO3)CC2)cc1Cl` (single isomer, unassigned) [Example 3-5, (S or R)-2-chloro-N,N-dimethyl-4-(4-(1-(2-phenyl-tetrahydrofuran-2-carbonyl)piperidin-4-yl)butoxy)benzamide], the “LXR alpha IP” value in assay [1] (setting [7]) was “No IP”. Further, the Emax in assay [1] (setting [6]) turned out to be 0%; in assay [2], 54%. In assay [2] (LXR beta IP), the EC50 was 91 nM.

For the molecule `O=C(c1ccc(OCCCCC2CCN(C(=O)C(O)(c3ccccc3)C(F)(F)F)CC2)cc1Cl)N1CC(F)(F)C1` (single isomer, unassigned) [Example 8-4, (R or S)-1-(4-(4-(3-chloro-4-(3,3-difluoroazetidine-1-carbonyl)phenoxy)butyl)piperidin-1-yl)-3,3,3-trifluoro-2-hydroxy-2-phenylpropan-1-one], the EC50 is 48 nM in assay [1] (setting [5]) and 12 nM in assay [2] (LXR beta IP). The values for the Emax in assay [1] (setting [6]) and in assay [2] were 18% and 60%, respectively.

With “4-(2-((1S,2R or 1R, 2S)- 2-(1-((R or S)-2-amino- 3,3,3-trifluoro-2- phenylpropanoyl) piperidin-4- yl)cyclopropyl)ethoxy)-2- chloro-N- methylbenzamide [Example 10-4]”, the “LXR alpha actiivty at max dose” value in assay [1] (setting [8]) is recorded as 83%. Further, the EC50 in assay [1] (setting [4]) is 586 nM; in assay [2] (read-out: LXR beta IP) it was 8 nM. The “LXR beta actiivty at max dose” value in assay [2] (setting [8]) stood at 147%.

Regarding `CN(C)C(=O)c1ccc(OCC[C@@H]2C[C@@H]2C2CCN(C(=O)[C@@](O)(c3ccccc3)C(F)(F)F)CC2)nc1Cl` (single isomer, unassigned) [Example 10-6, 2-chloro-N,N-dimethyl-6-(2-((1S,2R or 1R,2S)-2-(1-((S or R)-3,3,3-trifluoro-2-hydroxy-2-phenylpropanoyl)piperidin-4-yl)cyclopropyl)ethoxy) nicotinamide], the EC50 was found to be 206 nM in assay [1] (setting [5]) and 12 nM in assay [2] (LXR beta IP). Besides, the values for the Emax in assay [1] (setting [6]) and in assay [2] were 36% and 71%, respectively.

Consider `COc1cccc([C@](O)(C(=O)N2CCC3(CC2)C[C@H]3CCCOc2ccc(C(=O)N(C)C)c(Cl)c2)C(F)(F)F)c1` (single isomer, unassigned) [Example 14-4, 2-chloro-N,N-dimethyl-4-(3-((R or S)-6-((S or R)-3,3,3-trifluoro-2-hydroxy-2-(3-methoxyphenyl)propanoyl)-6-azaspiro[2.5]octan-1-yl)propoxy)benzamide], for which, in assay [1] (setting [7]), the “LXR alpha IP” value is recorded as “No IP”. In addition, the Emax was 0% in assay [1] (setting [6]) and 80% in assay [2]. Also, the EC50 in assay [2] (LXR beta IP) came to 83 nM.

Turning to `COc1cccc(C(O)(C(=O)N2CCC(C(C)CCCOc3ccc(C(=O)N(C)C)c(Cl)c3)CC2)C(F)(F)F)c1` (single isomer, unassigned) [Example 26-1, 2-chloro-N,N-dimethyl-4-((R or S)-4-(1-((R or S)-3,3,3-trifluoro-2-hydroxy-2-(3-methoxyphenyl)propanoyl)piperidin-4-yl)pentyloxy)benzamide], the Emax in assay [1] (setting [3]) was 12%; in assay [2], 65%. Moreover, the EC50 in assay [1] (setting [4]) was determined as 236 nM; in assay [2] (LXR beta IP), 8 nM.
